SMILES strings stand for the structures. Values joined by “and” are separate entries in the source; they are usually repeats but may differ in a detail not shown here. Equal values may be shown once.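 Five concentrations, 48 hours, 96-well plates. Abbreviation: GI50, concentration required for 50% inhibition of growth. TGI: total growth inhibition.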

What all share (test): NCI tumour cell line growth inhibition, 48 h
The subject of assay [1] is MDA-MB-435.
The test system of assay [2] is MCF7 breast.
Assay [3] deals with MALME-3M melanoma.
For assay [4], the system named is MOLT-4 leukemia.
Assay [5] relates to SK-OV-3 ovarian.
The subject of assay [6] is OVCAR-3 ovarian.
Assay [7] deals with A498 renal.
The test system of assay [8] is SK-MEL-28 melanoma.
In assay [9] the test system is EKVX NSCLC.
The subject of assay [10] is CAKI-1 renal.

With `COC(=O)CCNc1c2ccccc2nc2cccc([N+](=O)[O-])c12`, the TGI in [1] is 0.00104 µM; in assay [2], 0.277 µM; in assay [3], 0.00226 µM; in assay [4], 0.117 µM and 0.0124 µM; in assay [5] it was 0.405 µM and 0.18 µM; in assay [6], 0.00397 µM. Also, the TGI in [7] is 0.0585 µM; in [8] it was 0.0112 µM and 0.0918 µM. The GI50 in [4] is 0.00107 µM; in [5], 0.0405 µM; in assay [7] it was 0.0185 µM; in assay [8], 0.0029 µM.

Consider `COC(=O)[C@]1(c2ccc(N(C)C)cc2OC)C[C@@H]2CCCN(CCc3c1[nH]c1ccccc31)C2`, for which the TGI in [2] was 30.7 µM; in [3], 33.2 µM; in [4], over 91.4 µM; in [9], 52 µM; in assay [10], over 100 µM; in [5], over 61.4 µM. In addition, the values for the TGI in assay [6], in assay [7] and in assay [8] were 36.4 µM, 47 µM and 35.1 µM, respectively.

Turning to `CNC(=O)SCC(NC(=O)CCC(N)C(=O)O)C(=O)NCC(=O)O` (stereo unspecified), the TGI in assay [2], in [3], in [4], in [9], in assay [10] and in assay [5] was over 100 µM each time. Moreover, the TGI in [6], in assay [7] and in [8] was over 100 µM each time.

Turning to `COc1cc(C2C3=C(CCCC3=O)N(c3ccc(C)cc3)C3=C2C(=O)CCC3)c([N+](=O)[O-])cc1OC`, the TGI in assay [2], in [4], in assay [9], in [10], in assay [5] and in assay [6] was over 100 µM each time. The TGI in [7] and in [8] was over 100 µM throughout.

For the compound `O=[N+]([O-])/C=C(\CS(=O)(=O)c1ccccc1)c1ccc2c(c1)OCO2`, the TGI in assay [1] is 76.6 µM; in [2], over 100 µM; in assay [4], over 100 µM; in [9], over 100 µM; in assay [10] it was 93.5 µM; in assay [5], over 100 µM. Moreover, the TGI is over 100 µM in assay [6], 81.2 µM in [7] and over 100 µM in assay [8].

For the compound `C=CC(C)C1(CCCOCc2ccccc2)C(=S)N2CCC3(CC24CCCC14)OCCO3` (stereo unspecified), the TGI in assay [3], in assay [4], in [9], in assay [10], in [5] and in assay [6] was over 100 µM each time. Also, the TGI in [7] and in [8] was over 100 µM in each case.

For the compound `COC(=O)C1CCC(=O)N1C(c1cc(OC)c(OC)c(OC)c1)c1cccc2ccccc12` (stereo unspecified), the TGI in [1], in assay [2], in assay [4], in assay [9], in assay [5] and in assay [6] was over 100 µM in each case. The TGI in assay [7] and in assay [8] was over 100 µM throughout.

For the compound `O=C(O)c1c2c(cc3c1CC1(Cc4cc5c(cc4C1=O)CCC5)C3)CCC2` (stereo unspecified), the TGI in assay [1], in [2], in assay [3], in assay [4], in assay [9] and in assay [5] was over 100 µM in each case. The results for the TGI in assay [6], in [7] and in assay [8] were over 100 µM, over 100 µM and 82.5 µM, respectively.

In the case of `CN(C)CCNC(=O)c1cccc2nc3c(C(=O)NCCN(C)C)cccc3nc12`, the TGI in assay [1] is 2.59 µM; in [3], 3.59 µM; in assay [4] it was 14.7 µM; in [9] it was 3.76 µM; in assay [10] it was over 100 µM; in [6], 8.67 µM. Besides, the TGI is 4.61 µM in assay [7] and 4.64 µM in assay [8].

As for `COC(=O)c1c2c(cc3c1CC1(Cc4cc5c(c(C(C)=O)c4C1)CCCC5)C3)CCCC2` (stereo unspecified), the TGI in [1], in assay [2], in [3], in assay [9], in assay [5] and in assay [6] was over 100 µM throughout. Also, the TGI in assay [7] is over 100 µM.

With `CCOc1ccc(C(C)c2cc3c(cc2OC)OCO3)cc1` (stereo unspecified), the TGI was 89.7 µM in assay [3]; 15 µM in assay [4]; over 100 µM in assay [10]; over 100 µM in assay [5]; 27.7 µM in assay [6].

As to `Cc1cc2c(c(S(=O)(=O)c3ccccc3[N+](=O)[O-])c1)NCCC2`, the TGI in assay [1], in assay [2], in [3], in assay [9], in assay [5] and in assay [6] was over 100 µM each time. Moreover, the TGI in assay [7] and in assay [8] was over 100 µM in each case.

Take `CCOC(=O)CCN1C(=O)C(=O)N(c2ccc(OC)cc2)C1=S`: the TGI in assay [1], in [3], in assay [4], in assay [9], in assay [10] and in assay [5] was over 100 µM in each case. Further, the TGI in [7] and in assay [8] was over 100 µM each time.

`COC(=O)C1=C(O)CCCC(C2CCCCC(=O)C2C(=O)OC)=C1` (stereo unspecified): the TGI in assay [1] is over 100 µM; in assay [2], 70.4 µM; in [4], over 100 µM; in assay [9] it was over 100 µM; in assay [10] it was over 100 µM; in assay [5], over 100 µM. Moreover, the figures for the TGI in assay [6], in [7] and in assay [8] were over 100 µM, 58.7 µM and over 100 µM, respectively.

Regarding `CCCOP(=O)(OCCC)OC(C(F)(F)F)C(F)(F)F`, the TGI in assay [1], in assay [2], in assay [3], in [4], in assay [9] and in assay [5] was over 100 µM each time. For the same compound, the TGI in assay [6], in assay [7] and in assay [8] was over 100 µM throughout.

In the case of `COc1cc2c(cc1Oc1c(Oc3c(O)c(OC)cc4c3C(CC(C)C)N(C)CC4)c(OC)cc3c1C(CC(C)C)N(C)CC3)C(CC(C)C)N(C)CC2` (stereo unspecified), the TGI in [2] was found to be 8.3 µM; in [3], 7.39 µM; in assay [4] it was 4.05 µM; in [9], 2.18 µM; in assay [10] it was 4.5 µM; in [5], 11.8 µM. The TGI was determined as 11.4 µM in assay [6], 0.304 µM in assay [7] and 13.6 µM in assay [8].

Regarding `COc1cc2cc(C(=O)N3CC(CCl)c4ccc(N(C)C)cc43)[nH]c2c(OC)c1OC` (stereo unspecified), the TGI in assay [1] amounted to 0.336 µM; in [2] it was 0.604 µM; in assay [4] it was 0.443 µM; in assay [9], 0.558 µM; in assay [10], 1.28 µM; in [5], 1.54 µM. Further, the TGI in [6] came to 0.363 µM; in assay [8] it was 0.121 µM.

As for `COc1ccc(-c2ncn(C[Si](C)(C)C)c2-c2ccc(OC)cc2)cc1`, the TGI worked out at 13 µM in assay [1]; 31.1 µM in [2]; 23.7 µM in assay [3]; 4.22 µM in assay [4]; 12.1 µM in [9]; 21.9 µM in assay [10]. The TGI amounted to 36.9 µM in [5] and 14.8 µM in [8].

With `O=C(O)/C(=C\c1ccc(O)cc1)c1cccc2ccccc12`, the TGI in [1], in assay [3], in [4], in [9], in assay [10] and in assay [6] was over 100 µM in each case. The TGI in assay [7] and in [8] was over 100 µM throughout.

As for `Cc1nc2ccc(F)cc2c(Cl)c1CCCl`, the TGI was 82.5 µM in assay [1]; 90.1 µM in assay [2]; 87.6 µM in assay [3]; 98.6 µM in assay [4]; over 100 µM in [9]; over 100 µM in assay [6]. The TGI in assay [7] and in assay [8] was over 100 µM each time.

As for `O=C(C/C(=N/O)C(F)(F)F)c1cccs1`, the TGI in assay [1], in [2], in assay [4], in assay [9], in [10] and in assay [5] was over 100 µM in each case. Besides, the TGI in [6], in assay [7] and in assay [8] was over 100 µM in each case.

Take `COC(=O)C(Cc1ccc(N(C)C)cc1)(NC(=O)c1ccccc1)P(=O)(OC)OC` (stereo unspecified): the TGI in assay [4], in assay [9], in assay [10], in assay [5], in assay [7] and in [8] was over 100 µM each time.

For the compound `COC(=O)C1=C(C(=O)OC)C(N(C)C)C(C(=O)OC)=C(C(=O)OC)S1`, the TGI in assay [1], in assay [2], in assay [4], in assay [10], in assay [5] and in [6] was over 100 µM each time. The TGI in assay [7] and in assay [8] was over 100 µM in each case.

Consider `CCCCCCCCCCCCCC[n+]1ccc(C(N)=O)cc1`, for which the GI50 was 1.87 µM in [1]; 2.27 µM in assay [3]; 2.54 µM in [4]; 1.98 µM in assay [9]; 3.04 µM in assay [10]; 2.33 µM in [5]. Moreover, the GI50 in assay [6] was 1.54 µM; in [7] it was 3.07 µM; in assay [8], 2.83 µM. Moreover, the TGI is 4.64 µM in assay [1]; 7.72 µM in assay [3]; over 100 µM in [4]; 6.71 µM in assay [9]; 15 µM in assay [10]; 10.9 µM in assay [5]. Also, the TGI in assay [6] came to 5.39 µM; in assay [7], 21.5 µM; in assay [8], 7.49 µM.

For `COC1=CC(=O)C=C(OC)C1=O`, the TGI in assay [2] was determined as 42.7 µM; in [3], 51 µM; in assay [4] it was 3.59 µM; in assay [9], 13 µM; in assay [10] it was 96.6 µM; in assay [5], 40.3 µM. The TGI in assay [6] worked out at 32.2 µM; in assay [7], 3.39 µM; in [8], 46.5 µM.

`N#Cc1cc(Sc2ccc(N)c(C#N)c2)ccc1N`: the TGI in assay [1] is 12.6 µM; in [2] it was over 100 µM; in [3], 36.4 µM; in [4], over 100 µM; in [9], 50.5 µM; in assay [5] it was over 100 µM. The TGI in assay [6], in assay [7] and in assay [8] was over 100 µM throughout.

Take `COc1c(Br)cc2ccccc2c1-c1c(OC)c(Br)cc2ccccc12`: the TGI in assay [1], in assay [2], in assay [4], in [9], in assay [10] and in assay [5] was over 100 µM throughout. Further, the TGI in assay [6], in [7] and in assay [8] was over 100 µM throughout.

`COC(=O)C(Cc1c[nH]c2ccccc12)NP(=O)(O)OCC1OC(n2cc(Br)c(=O)[nH]c2=O)CC1O` (stereo unspecified): the TGI in assay [1], in assay [2], in assay [3], in assay [4], in assay [9] and in assay [5] was over 100 µM in each case. Moreover, the TGI in [6], in [7] and in assay [8] was over 100 µM each time.

For `O=C(Nc1ccccc1Cl)c1ccc([N+](=O)[O-])cc1`, the TGI in [3], in assay [4], in [9], in [10], in assay [5] and in assay [6] was over 100 µM each time. In addition, the TGI in assay [7] and in assay [8] was over 100 µM in each case.

As to `Cn1c2ccccc2c2cc(N3CCCC3)c3c(c21)C(=O)N(c1ccccc1)C3=O`, the TGI in assay [1], in assay [2], in assay [3], in [4], in assay [9] and in [5] was over 100 µM throughout. Moreover, the TGI in assay [6], in [7] and in [8] was over 100 µM in each case.

The record behind these values is PubChem BioAssay (NCI).
